Common to all, as to type: in vivo
Assay [1] has as its system PC3M prostate cancer tumor. Kind of assay: miRNA marker levels after PC3M prostate cancer tumor implantation and anti-tumor drug. The protocol: (§1) Plasma samples (50 uL) were stored at −80° C. after receiving them. The samples were thawed on ice, and total RNA was isolated with the miRCURY RNA Isolation Kit for Biofluids (Exiqon) according to the supplied protocol (1 uL of Exiqon spike-in UniRT RNA mix was added to each sample before RNA isolation). RNA was eluted into 50 uL nuclease-free water, and either processed directly for cDNA synthesis of stored at −80° C. until that time. RNA from each sample was used to create cDNA in 40 uL reaction volume with the Universal cDNA Synthesis Kit II (Exiqon) according to the supplied protocol. RNA concentration for plasma samples is not quantitated; 8 uL each RNA sample is used without adjusting concentration. The 40 uL of cDNA per sample was then used to set-up qPCR directly or stored at −20° C. until use. The 40 uL cDNA was diluted into 4 mL of nuclease-free water, and then mixed with 4 mL 2X ExiLENT SYBR Green master mix (Exiqon) to create 8 mL qPCR mix, according to protocol supplied with miRNome Panels (Exiqon). The 8 ml master mix was then pipetted into the two 384-well plates (Exiqon microRNA Ready-to-Use PCR, Human panel I+II, V3.M), 10 ul per well according to the supplied protocol. The plates were briefly centrifuged, sealed, and run on the ABI Viia7 real time PCR thermocycler, using the PCR template program supplied by Exiqon. Results were exported as text files and then imported into the GenEx software (Exiqon) for analysis. Data pre-processing and analysis steps were performed according to the recommendations of the Exiqon Data Analysis Guide. Briefly, biological replicate were grouped, outliers were automatically detected and removed, Ct values higher than 37 were considered background and removed, missing data was filled by the GenEx software with an imputed value based on group mean. Cts for each sample were normalized to the global mean of all expressed miRNAs with a Ct<34.

The subject of another assay is A549 lung cancer tumor. Briefly: miRNA marker levels after A549 lung cancer tumor implantation and anti-tumor drug. The procedure:
as §1

The test system of assay [2] is COLO 205 human colorectal cancer cells. Kind of assay: Drug efficacy in COLO 205 tumor-bearing mice (tumor burden). The procedure:
Immune compromised mice were injected with COLO 205 human colorectal cancer cells and tumors were allowed to develop, after which the mice were treated with either irinotecan or vehicle for 14 days. In a second control group, normal mice maintained in parallel but not bearing tumors were treated with either irinotecan or vehicle. […] During the course of drug treatment, blood plasma samples were taken from all mice at regular intervals from 3 to 14 days. RNA was prepared from the plasma samples and analyzed for miRNA content by a panel of quantitative PCR assays for approximately 700 miRNAs. The relative quantities of each miRNA assayed were normalized to the global mean in each sample and then compared between the paired groups: drug versus vehicle treatment in tumor-bearing mice; drug versus vehicle in tumor-free mice; and tumor bearing versus tumor-free mice. […]
We looked for miRNAs whose pattern of detection matched that in the mice treated with drug for 14 days. The pattern of quantification for these miRNAs—higher or lower in the drug treated mice compared to the vehicle treated controls—matched miRNAs from the 14 day time point. […] These 14 miRNAs form a signature of plasma miRNA content that correlates with drug efficacy late in the course of drug treatment and predicts efficacy early in the drug treatment regimen before any effects of irinotecan on tumor burden could be detected.

In another assay the test system is COLO 205 tumor. Briefly: Plasma miRNA profiling by qPCR panel in COLO 205 tumor-bearing mice, drug versus vehicle. Conditions: for miRNAs different upon drug treatment: Higher: plasma, relative to a vehicle-treated control, 3 days, matching 14 day pattern. The protocol:
as §1
Immune compromised mice were injected with COLO 205 human colorectal cancer cells and tumors were allowed to develop, after which the mice were treated with either irinotecan or vehicle for 14 days. In a second control group, normal mice maintained in parallel but not bearing tumors were treated with either irinotecan or vehicle. […] During the course of drug treatment, blood plasma samples were taken from all mice at regular intervals from 3 to 14 days. RNA was prepared from the plasma samples and analyzed for miRNA content by a panel of quantitative PCR assays for approximately 700 miRNAs. The relative quantities of each miRNA assayed were normalized to the global mean in each sample and then compared between the paired groups: drug versus vehicle treatment in tumor-bearing mice; drug versus vehicle in tumor-free mice; and tumor bearing versus tumor-free mice. Samples were taken from six replicate mice for each time point in each of the categories.
To eliminate those miRNA differences that were the result of drug treatment alone, we examined the miRNA profiles in the irinotecan treated normal, tumor-free mice compared with the same type of mice treated with vehicle.
We looked for miRNAs whose pattern of detection matched that in the mice treated with drug for 14 days. The pattern of quantification for these miRNAs—higher or lower in the drug treated mice compared to the vehicle treated controls—matched miRNAs from the 14 day time point. We found three miRNAs, miR-30d-3p, miR-483-5p, and miR-708-3p, that were elevated in the drug treated tumor bearing mice compared with the vehicle controls and 11 miRNAs, miR-21-3p, miR-101-5p, miR-122-3p, miR-197-3p, miR-429, miR-501-3p, miR-509-3p, miR-598, miR-206, miR-885-5p, and miR-1972, that were lower in the drug treated mice compared with the controls. These 14 miRNAs form a signature of plasma miRNA content that correlates with drug efficacy late in the course of drug treatment and predicts efficacy early in the drug treatment regimen before any effects of irinotecan on tumor burden could be detected. […]
For orientation: In qPCR the cycle at which signal appears reflects the starting amount.

Setting [3] is: three days following administration.
[4] abbreviates: three days, matched 14 day time point.

Consider `CC(=O)O[C@@]12CO[C@@H]1C[C@H](O)[C@@]1(C)C(=O)[C@H](O)C3=C(C)[C@@H](OC(=O)[C@H](O)[C@@H](NC(=O)OC(C)(C)C)c4ccccc4)C[C@@](O)([C@@H](OC(=O)c4ccccc4)[C@H]21)C3(C)C` [Docetaxel], for which, in assay [1] (following administration), the “level of certain miRNA markers that decrease upon tumor implantation (FIG. 7)” value is “increase”; the “level of certain miRNA markers that increase upon tumor implantation (FIG. 5)” value is “decrease”; the “level of miR-190, miR-153 and miR-92a-1 (FIG. 6)” value is recorded as “decrease”; the “level of miR-634 and miR-647 (FIG. 8)” value is given as “increase”. The “particular miRNA marker levels upon administration to prostate tumors (FIG. 2)” value in assay [1] (prostate tumors (PC3M)) is on record as “decrease”.

In the case of `N.N.[Cl][Pt][Cl]` [Cisplatin], in the assay on A549 lung cancer tumor (lung tumors (A549)), the “particular miRNA marker levels upon administration to lung tumors (FIG. 2)” value is reported as “decrease”. Besides, in the assay on A549 lung cancer tumor (setting [3]), the “level of certain miRNA markers that decrease upon tumor implantation (FIG. 3)” value was “increase”; the “level of certain miRNA markers that increase upon tumor implantation (FIG. 1)” value is “decrease”; the “level of miR-16-5p, miR-1208, miR-24-3p and miR-588 (FIG. 4)” value was “increase”.

Take `CCc1c2c(nc3ccc(OC(=O)N4CCC(N5CCCCC5)CC4)cc13)-c1cc3c(c(=O)n1C2)COC(=O)[C@]3(O)CC` [irinotecan]: the “tumor burden in drug treated mice versus vehicle treated control group” value in assay [2] (after 14 days of drug treatment) is “significantly lower tumor burden”. For the same compound, in assay [2] (treated for only three days), the “difference in tumor burden, drug versus vehicle” value is reported as “no significant difference in tumor burden”. Further, in the assay on COLO 205 tumor (detectable in the vehicle treated mice), the “detection of the 11 miRNAs in plasma of drug treated mice” value was “undetectable”. Also, the “miRNAs different upon drug treatment: Higher” value in the assay with COLO 205 tumor (miR-483-5p) was “miR-483-5p”. Also, the “miRNAs different upon drug treatment: Higher” value with COLO 205 tumor (miR-708-3p) is given as “miR-708-3p”. In addition, in the assay on COLO 205 tumor (miR-30d-3p), the “miRNAs different upon drug treatment: Higher” value is “miR-30d-3p”. For the same compound, in the assay on COLO 205 tumor (setting [4]), the “plasma miR-21-3p, miR-101-5p, miR-122-3p, miR-197-3p, miR-429, miR-501-3p, miR-509-3p, miR-598, miR-206, miR-885-5p and miR-1972 in drug treated mice compared with controls” value is recorded as “lower”; the “plasma miR-30d-3p, miR-483-5p and miR-708-3p in drug treated tumor bearing mice compared with vehicle controls” value is listed as “elevated”. Further, in the assay on COLO 205 tumor (tumor-bearing mice), the “detection of miR-30d-3p and miR-708-3p in plasma of treated tumor-bearing mice” value was “went from undetected to detected”; the “plasma miR-483-5p in treated tumor-bearing mice” value is “increased”.

Source of the values: US20180291468A1, “MARKERS OF TUMOR CELL RESPONSE TO ANTI-CANCER THERAPY” (REGENERON PHARMACEUTICALS, INC., priority 2013, published 2018).
